# Assay results published in patent US20080299123A1, “TREATMENT OF CHEMOTHERAPY- OR RADIOTHERAPY-RESISTANT TUMORS” (Deutsches Krebsforschungszentrum Stiftung des offentlichen …, priority 2006, published 2008).
# Entries after “also recorded” stand apart in the source; their conditions may differ.
# B1: soluble L1: soluble L1 ectodomain isolated from ascites fluid of ovarian carcinoma patients (protein, UniProt P32004 20-1120, looked up)
# extracellular domain: IQIPEEYEGHHVMEPPVITEQSPRRLVVFPTDDISLKCEASGKPEVQFRWTRDGVHFKPKEELGVTVYQSPHSGSFTITGNNSNFAQRFQGIYRCFASNKLGTAMSHEIRLMAEGAPKWPKETVKPVEVEEGESVVLPCNPPPSAEPLRIYWMNSKILHIKQDERVTMGQNGNLYFANVLTSDNHSDYICHAHFPGTRTIIQKEPIDLRVKATNSMIDRKPRLLFPTNSSSHLVALQGQPLVLECIAEGFPTPTIKWLRPSGPMPADRVTYQNHNKTLQLLKVGEEDDGEYRCLAENSLGSARHAYYVTVEAAPYWLHKPQSHLYGPGETARLDCQVQGRPQPEVTWRINGIPVEELAKDQKYRIQRGALILSNVQPSDTMVTQCEARNRHGLLLANAYIYVVQLPAKILTADNQTYMAVQGSTAYLLCKAFGAPVPSVQWLDEDGTTVLQDERFFPYANGTLGIRDLQANDTGRYFCLAANDQNNVTIMANLKVKDATQITQGPRSTIEKKGSRVTFTCQASFDPSLQPSITWRGDGRDLQELGDSDKYFIEDGRLVIHSLDYSDQGNYSCVASTELDVVESRAQLLVVGSPGPVPRLVLSDLHLLTQSQVRVSWSPAEDHNAPIEKYDIEFEDKEMAPEKWYSLGKVPGNQTSTTLKLSPYVHYTFRVTAINKYGPGEPSPVSETVVTPEAAPEKNPVDVKGEGNETTNMVITWKPLRWMDWNAPQVQYRVQWRPQGTRGPWQEQIVSDPFLVVSNTSTFVPYEIKVQAVNSQGKGPEPQVTIGYSGEDYPQAIPELEGIEILNSSAVLVKWRPVDLAQVKGHLRGYNVTYWREGSQRKHSKRHIHKDHVVVPANTTSVILSGLRPYSSYHLEVQAFNGRGSGPASEFTFSTPEGVPGHPEALHLECQSNTSLLLRWQPPLSHNGVLTGYVLSYHPLDEGGKGQLSFNLRDPELRTHNLTDLSPHLRYRFQLQATTKEGPGEAIVREGGTMALSGISDFGNISATAGENYSVVSWVPKEGQCNFRFHILFKALGEEKGGASLSPQYVSYNQSSYTQWDLQPDTDYEIHLFKERMFRHQMAVKTNGTGRVRLPPAGFATE
# modifications: extracellular domain
# notes: soluble L1 ectodomain isolated from ascites fluid of ovarian carcinoma patients
# Tests used:
# HEK293-hL1wt cells = test: Haptotactic cell migration on fibronectin, HEK293-hL1wt; format: cell-based, human; settings: MEK inhibitor at 20 μM
# Description: (A) L1 processing and cleavage in transfected HEK293 cells. The cell lysates were analyzed by Western blot with pcyt-L1 recognizing the cytoplasmic portion of L1. The nomenclature of L1-cleavage fragments is according to a previous publication (Mechtersheimer et al, 2001). (B) ELISA analysis. Soluble L1 levels in the medium of HEK293-hL1wt or HEK293-hL1mutTS cells treated with or without PMA stimulation for 1 h at 37° C. was analyzed. Lysates from both cell lines were used as positive controls. (C) Stimulation of cell migration on fibronectin by recombinant L1-Fc. The fusion protein was added at the final concentration of 0.6 μg/ml. […] (E) Phosphorylation of ERK1/2, FAK, PAK 1 and Src was analyzed in HEK293, HEK293-hL1wt and HEK293-hL1mutTS cells grown in serum. […] Labelled proteins were detected by autoradiography.
# (A) HEK293 cells or HEK293-hL1wt cells were transfected transiently with plasmids (10 μg DNA) encoding hL1mut, dominant-negative ADAM10 (ADAM10-DN) or empty pcDNA3 vector. […] 48 h after transfection, cells were analyzed for haptotactic cell migration on fibronectin. […] 48 h after transduction with hL1wt or hL1mutTS adenovirus or YFP-TM adenovirus for control, KS cells or the L1 positive ovarian carcinoma cells OVMz, SKOV3ip and MO68 were analyzed for haptotactic cell migration on fibronectin as described in the legend to FIG. 1. […]
# HEK293-hL1 cells [1] = test: Induction of apoptosis, Nicoletti staining, in HEK293-hL1 cells; format: cell-based, human; settings: L1 positive cells; cisplatin 17 μM
# Description: (§1) Cells (1×10^5 cells per well) were cultured in duplicate in 6 well culture plates and, after washing once with PBS, incubated for the indicated timepoints with or without apoptotic stimuli in serum-free medium. Staurosporine (2 μM), C2-ceramide (40 μM) or cisplatin (17 μM) were used as apoptotic reagents. For hypoxia studies, cells were incubated for different time points under hypoxic conditions (1% O2) using a Reming Bioinstruments chamber and oxygen regulator (Reming Bioinstruments, Redfield, N.Y.).
# (§2) For quantification of DNA fragmentation, supernatants were centrifuged at 200×g. The cell pellet was washed once in PBS (pH 7.4) and lysed in a hypotonic lysis buffer (0.1% sodium citrate, 0.1% Triton X-100, 50 μg/ml propidiumiodite) at 4° C. overnight. The nuclei were then analyzed for DNA content by flow cytometry. The staining of cells for flow cytometry with mAbs and PE-conjugated secondary antibodies has been described. Cells were analysed with a FACScan using Cellquest or FlowJo software from Becton Dickinson (Heidelberg, Germany).
# HEK293 cells [2] = test: Induction of apoptosis, Nicoletti staining, in HEK293 cells; format: cell-based, human; settings: L1-negative cells; cisplatin 17 μM
# Description: as §1, §2
# m130 cells = test: Long-term cisplatin treatment of m130 cells; format: cell-based
# Description: (A) Light microscopy of cisplatin treated and no-treated m130 cells. Note the more elongated morphology after treatment for 3 weeks. The bar represents 10 μm. (B) FACS analysis of cisplatin treated m130 cells with mAb L1-11A against human L1-CAM. The analysis was carried out as described in FIG. 1. (C) Western blot analysis of cell lysate from cisplatin treated on non-treated m130 cells. (D) FACS analysis of cisplatin treated SW707 colon carcinoma cells with mAb L1-11A against human L1-CAM.
# We studied whether long-term cisplatin treatment of L1-negative m130 cells would augment L1 expression. M130 cells were treated cells with increasing amounts of cisplatin over a time period of 3 weeks (10 μM first week, 15 μM second week, 20 μM third week).
# m130 = settings: L1 negative cell line m130; previous work [29]; read-out: IC50 for cisplatin; cited from earlier work
# OVMz = settings: L1 high expressing cell line OVMz; previous work [29]; read-out: IC50 for cisplatin; cited from earlier work
# L1 = test: siRNA-mediated knockdown of L1 in OVMz cells (FACS, Western blot); format: cell-based, human; settings: 48 hours after transfection
# Description: (A) OVMz cells were transfected with L1-specific siRNA or control siRNA. After 48 hrs, cells were stained with mAb L1-11A to L1 followed by PE-conjugated anti-mouse IgG antibody and subjected to FACS analysis. (B) Cell lysates were analyzed by Western blot analysis using antibodies to the L1 ectodomain (mAb L1-11A) or the cytoplasmic portion (pcytL1). The L1-32 fragment is the ADAM10-mediated ectodomain cleavage fragment.
# as §2
# (§3) SDS-PAGE under reducing conditions and transfer of separated proteins to Immobilon membranes using semi-dry blotting was described before. […] Eluted fractions were neutralized and an aliquot of the samples was analyzed by SDS-PAGE. […]
# Transfection of siRNAs was described before. […] Cells were transfected with annealed siRNAs using Oligofectamine (Life Technologies) and analyzed after the indicated time points.
# OVMz cells = test: Apoptosis by Nicoletti staining in siRNA transfected OVMz cells; format: cell-based; settings: compared to control siRNA treated cells
# Description: as §1, §2
# (§4) Transfection of siRNAs was described before. L1 (5′-AGGGAUGG-UGUCCACCUUCAAAUU-3′) siRNA (SEQ ID NO: 1) was synthesized by MWG-Biotech (Ebersberg, Germany). Cells were transfected with annealed siRNAs using Oligofectamine (Life Technologies) and analyzed after the indicated time points.
# [3] = test system: ERK and FAK phosphorylation; test: Phosphorylation of ERK and FAK in L1-depleted OVMz cells; format: cell-based
# Description: (C) Phosphorylation of ERK1/2, FAK, and PAK 1 was analyzed in L1-siRNA depleted cell. (D and E) analysis of apoptosis by Nicoletti staining.
# (§5) SDS-PAGE under reducing conditions and transfer of separated proteins to Immobilon membranes using semi-dry blotting was described before. After blocking with 5% skim milk in TBS, the blots were developed with the respective primary antibody followed by peroxidase conjugated secondary antibody and ECL detection. The isolation and characterization of soluble L1 from ascites fluid was described before. Briefly, the vesicle cleared ascites fluid from ovarian carcinoma patients was adsorbed to Sepharoselinked mAb L1-11A and bound L1 was eluted with 0.1 M Glycin/HCl buffer pH 2.8. Eluted fractions were neutralized and an aliquot of the samples was analyzed by SDS-PAGE. Cell pellets were lysed in lysis buffer (20 mM Tris/HCl pH 8.0 containing 1% Triton X-100, 150 mM NaCl, 1 mM PMSF), cleared by centrifugation and mixed with two fold-concentrated reducing SDS-sample buffer.
# as §4
# FAK phosphorylation = FAK phosphorylation in HEK293 cells after addition of soluble L1; format: cell-based, human; settings: addition of soluble L1 to HEK293 cells
# Description: (§6) (A) HEK293 and HEK293-hL1 cells were treated with staurosporine for the indicated length of time in the presence or absence of purified soluble L1 (10 μg/ml). Cell survival was determined by Nicoletti staining. (B) Analysis of FAK phosphorylation in HEK293 cells after the addition of soluble L1.
# as §5
# HEK293-hL1 cells [4] = test: Soluble L1 rescue from staurosporine induced apoptosis, HEK293-hL1; format: cell-based, human; settings: staurosporine 12 hours, purified soluble L1 10 μg/ml
# Description: as §6, §1
# (§7) For quantification of DNA fragmentation, supernatants were centrifuged at 200×g. […] The nuclei were then analyzed for DNA content by flow cytometry. […] Cells were analysed with a FACScan using Cellquest or FlowJo software from Becton Dickinson (Heidelberg, Germany).
# as §3
# HEK293 cells [5] = test: Soluble L1 rescue from staurosporine induced apoptosis, HEK293; format: cell-based, human; settings: staurosporine 12 hours, purified soluble L1 10 μg/ml
# Description: as §6, §1, §7, §3
molecule,measurement,setting,value
COc1cccc(-c2cc(=O)c3ccccc3o2)c1N [PD59098],cell migration,HEK293-hL1wt cells,Inhibition of cell migration was also observed
"N.N.[Cl][Pt][Cl] [cisplatin, cis-Diammineplatinum(II) dichloride]",cells survived the treatment with cisplatin,HEK293-hL1 cells [1],Approximately 70%
same,cells survived the treatment with cisplatin,HEK293 cells [2],40%
same,expression of L1,"m130 cells; cisplatin 3 weeks (10, 15, 20 μM), FACS and Western Blot",strongly enhanced
same,cell proliferation,"m130 cells; long-term cisplatin treatment, data not shown",clearly decreased cell proliferation
same,IC50,m130,7 µM
same,IC50,OVMz,> 14 µM
"L1-specific siRNA: L1 siRNA 5′-AGGGAUGG-UGUCCACCUUCAAAUU-3′ (SEQ ID NO: 1), synthesized by MWG-Biotech",L1 expression at the cell surface,L1,downregulation of L1 expression at the cell surface
same,sensitivity to apoptosis induced by cisplatin or staurosporine,OVMz cells,significantly enhanced
same,phosphorylation of ERK and FAK,[3],no significant reduction
B1,FAK phosphorylation,FAK phosphorylation,enhanced FAK phosphorylation
same,cell survival,HEK293-hL1 cells [4],enhanced survival of both cell lines to a similar degree
same,cell survival,HEK293 cells [5],enhanced survival of both cell lines to a similar degree; also recorded: only partially rescue HEK293 cells from apoptosis
